Results taken from patent publication US20060089335A1, “Compositions and methods for enhancing cognitive function and synaptic plasticity” (priority 2003, published 2006).
Entries after “also recorded” stand apart in the source; their conditions may differ.

What was measured:
GluR1 = assay: quantitative Western blotting of hippocampal homogenate; type: in vivo, rat; details: baclofen 0.07 mg/kg/day in drinking water, 4 months; rats' hippocampus
Procedure: (§1) Quantitative Western blotting. Samples of hippocampal homogenate (10 ug/sample) were resolved on polyacrylamide gels, transferred to PVDF, and probed with anti-NR1 (Chemicon), NR2A (Upstate) or NR2B (Santa Cruz Biotech), GluR1 (Chemicon), Synapsin1 (American Qualex), or PSD-95 (Upstate) antibody followed by the appropriate secondary antibody coupled to horseradish peroxidase (1:10,000, Santa Cruz Biotech) in Tris-buffered saline (pH 7.3) containing 5% dry milk and 0.1% Tween (BioRad). Visualization of immunoreactive bands was achieved by enhanced chemiluminescence (Perkin Elmer Biosciences) and captured on autoradiography film (Kodak Scientific). Standard curves, in which the amount of protein was varied systematically, were constructed to establish that we operated within the linear range of the chemiluminescence detection method. In addition, each immunoblot was exposed to autoradiography film multiple times (average 7; minimum 5) for varying duration to make sure we operated in the linear range of the film for each experiment. Digital images, produced by scanning films on a Epson 3200 Scanner (Epson) with Epson Scan Software (Epson), were quantified using GelPro Analyzer 3.1 software. The integrated optical density (IOD) of each immunoreactive band from hippocampal samples relative to baseline measured immediately above and below the band in the same lane, and normalized by the actin or neurofilament band also in the same lane. Group data (eight animals per group) are represented as the mean+/−SEM of the IOD of samples.

NR2B = assay: as above; type: in vivo, rat
Procedure: as §1

[1] = test system: presynaptic terminals of cultured hippocampal neurons; assay: TBS-induced presynaptic plasticity measured by FM 1-43 dye uptake in hippocampal cultures; type: cell-based, rat
[2] = general status of treated rats; details: chronic treatment in drinking water, 4 months
[3] = biological target: NMDA receptors (NR2B-containing) (Rattus norvegicus, UniProt P35439+Q00960); assay: evoked NMDA currents ([…]), double-perforated patch; type: cell-based
NMDA receptors (NR2B-containing), sequence (Q00960 27-1482, other chains not shown): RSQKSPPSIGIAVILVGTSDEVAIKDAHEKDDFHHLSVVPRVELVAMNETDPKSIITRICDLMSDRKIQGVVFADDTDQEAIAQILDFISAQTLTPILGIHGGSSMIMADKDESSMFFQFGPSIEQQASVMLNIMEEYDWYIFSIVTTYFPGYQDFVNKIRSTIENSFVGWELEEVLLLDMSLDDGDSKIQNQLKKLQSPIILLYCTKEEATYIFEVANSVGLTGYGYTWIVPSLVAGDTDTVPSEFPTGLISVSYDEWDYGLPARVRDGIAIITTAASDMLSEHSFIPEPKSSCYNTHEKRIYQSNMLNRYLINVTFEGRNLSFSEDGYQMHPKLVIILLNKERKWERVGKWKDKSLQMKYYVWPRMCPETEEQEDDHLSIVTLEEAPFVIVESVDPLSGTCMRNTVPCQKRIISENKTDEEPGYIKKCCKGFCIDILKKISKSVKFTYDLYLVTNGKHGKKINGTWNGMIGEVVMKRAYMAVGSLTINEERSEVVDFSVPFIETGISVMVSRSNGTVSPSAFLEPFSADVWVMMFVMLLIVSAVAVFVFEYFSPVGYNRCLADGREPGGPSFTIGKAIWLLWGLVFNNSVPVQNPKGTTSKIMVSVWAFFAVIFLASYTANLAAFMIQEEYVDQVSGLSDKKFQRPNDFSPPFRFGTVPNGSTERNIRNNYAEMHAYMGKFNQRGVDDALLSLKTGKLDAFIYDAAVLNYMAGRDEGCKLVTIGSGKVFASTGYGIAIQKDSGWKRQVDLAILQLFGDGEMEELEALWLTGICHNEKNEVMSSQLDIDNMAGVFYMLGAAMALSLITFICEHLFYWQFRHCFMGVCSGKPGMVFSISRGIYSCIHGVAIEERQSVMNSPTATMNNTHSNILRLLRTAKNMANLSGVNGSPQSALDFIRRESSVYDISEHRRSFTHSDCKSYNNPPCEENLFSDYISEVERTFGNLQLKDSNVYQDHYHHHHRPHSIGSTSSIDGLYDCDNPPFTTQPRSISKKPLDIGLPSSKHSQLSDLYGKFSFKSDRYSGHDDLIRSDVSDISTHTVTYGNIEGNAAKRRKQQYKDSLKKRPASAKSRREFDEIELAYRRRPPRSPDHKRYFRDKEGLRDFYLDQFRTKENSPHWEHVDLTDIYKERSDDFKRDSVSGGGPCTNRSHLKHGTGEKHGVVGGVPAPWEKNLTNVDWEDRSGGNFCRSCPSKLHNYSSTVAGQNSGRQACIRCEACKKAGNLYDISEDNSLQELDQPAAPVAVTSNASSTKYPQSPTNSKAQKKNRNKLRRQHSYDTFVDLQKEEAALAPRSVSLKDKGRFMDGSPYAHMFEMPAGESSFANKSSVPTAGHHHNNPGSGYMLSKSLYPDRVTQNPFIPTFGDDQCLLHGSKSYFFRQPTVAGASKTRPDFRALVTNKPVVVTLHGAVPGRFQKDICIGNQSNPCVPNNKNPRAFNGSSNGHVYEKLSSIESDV
Procedure: Electrophysiology. Dual whole cell perforated patch clamp recordings were made on two interconnected cultured hippocampal pyramidal neurons. Perforated patch pipettes were front-filled with a solution containing (in mM): CsOH, 127; D-gluconic acid, 127; CsCl, 4; HEPES, 10; NaCl, 8; EGTA, 0.4; pH was adjusted to 7.25 with CsOH, and then back-filled with the same solution containing […] amphotericin B (Sigma, St. Louis, Mo.). Extracellular solution contained (in mM): NaCl, 145; KCl, 3; glucose, 15; HEPES, 10; MgCl2, 0.8-1.2; CaCl2, 1.2; 0.005 glycine (Sigma), 0.05 picrotoxin (Sigma); pH adjusted to 7.4 with NaOH. MgCl2 concentration was matched to its concentration in culture medium. In experiments where effects of drugs on neuronal activity were quantified (FIG. 4D), recordings were done in culture medium (with HEPES replacing bicarbonate/CO2 to maintain pH). All experiments were performed at room temperature. For assaying synaptic connectivity, each neuron was stimulated by 1 ms step depolarization from −70 to +30 mV in voltage-clamp mode. Only neurons with monosynaptic connections were used. […] Recordings with access resistance>20 MΩ or that varied substantially were rejected from analysis.
We hypothesized that one target may be the number and properties of NMDA receptors at individual synapses.

[4] = test system: excitatory and inhibitory terminals; details: short treatment (2-24 hr)

NCC(CC(=O)O)c1ccc(Cl)cc1 (stereo not shown) [baclofen, 4-amino-3-(4-chlorophenyl) butanoic acid]
GLUR1 expression level (GluR1): significant enhancement; also recorded: increases expression level
NR2B expression level (NR2B; baclofen 0.07 mg/kg/day in drinking water, 4 months, rats' hippocampus): significant enhancement; also recorded: increases expression level
increase in levels of NR2B protein (NR2B; baclofen treatment (FIG. 10)): approximately 60%
effect of theta-burst induction in treated cultures ([1]; 4-6 hours treatment, baclofen 20 μm, NBQX 1 μm, flunitrazepam 5 μm): Both the number of functional synapses and the probability of release increased
plasticity of presynaptic terminals (S2/S1) ([1]; baclofen 10 μM, short term (4-6 hours) and long term (48 hours)): induced enhancement of plasticity for both short term (4-6 hours) and long term (48 hours) periods of time; also recorded: enhances plasticity of presynaptic terminals
general status of the rats (body weight, mobility) [2]: did not observe any significant change in the general status
τdecay of EPSCNMDA, representative trace ([3]; baclofen-treated neurons, FIG. 7A): 200 ms
τdecay of EPSCNMDA, average ([3]; baclofen-treated neurons, N=6): 176 ± 30 ms
ifenprodil-sensitivity of EPSCNMDA in treated versus control cultures ([3]; ifenprodil 3 μM, baclofen 10 μM 6 hours or 1.2 mM Mg): triggered increased sensitivity of the EPSCNMDA to ifenprodil; also recorded: more sensitive to ifenprodil; also recorded: increases the sensitivity of EPSCNMDA to ifenprodil
change of synaptic density [4]: No short treatment (2-24 hr, baclofen, nimodepine, NBQX, and TTX) produced a significant change of synaptic density
